Molecular target: T1, aromatase (Homo sapiens, UniProt P11511)
T1 construct: microsomal protein per ml of assay buffer; from tissue; host or cells: microsomes
T1 sequence (P11511 1-503): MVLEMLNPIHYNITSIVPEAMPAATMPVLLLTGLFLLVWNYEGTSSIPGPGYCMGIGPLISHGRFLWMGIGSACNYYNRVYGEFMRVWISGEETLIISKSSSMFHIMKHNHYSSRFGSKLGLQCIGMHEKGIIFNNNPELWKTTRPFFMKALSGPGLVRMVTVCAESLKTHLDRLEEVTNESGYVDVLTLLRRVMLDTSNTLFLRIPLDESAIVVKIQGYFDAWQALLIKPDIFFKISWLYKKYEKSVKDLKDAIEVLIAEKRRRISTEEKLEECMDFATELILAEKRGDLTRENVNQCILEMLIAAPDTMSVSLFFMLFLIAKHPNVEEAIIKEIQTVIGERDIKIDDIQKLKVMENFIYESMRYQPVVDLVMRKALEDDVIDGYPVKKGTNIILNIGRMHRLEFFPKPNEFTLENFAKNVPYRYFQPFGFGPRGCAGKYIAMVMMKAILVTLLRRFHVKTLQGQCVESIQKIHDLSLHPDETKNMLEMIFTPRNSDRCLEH
Experiment: time-dependent aromatase inhibition assay (preincubation, Kitz-Wilson analysis)
Type: biochemical
Protocol: In this assay, the inhibitor is preincubated with enzyme prior to assaying for activity in the presence of high substrate levels. A time-related decrease in enzyme activity can be indicative of irreversible binding […] a preferred method of inhibition.
In the time-dependent assay, an amount of the enzyme inhibitor in 100 μl of the assay buffer described above which will provide assay concentrations which are usually between 1 nM and 10 μm are added to 35-ml centrifuge tubes containing 600 μl of the NADPH generating system. The preincubation is started by the addition of 700 μl of aromatase preparation, usually 300-800 μg of microsomal protein per ml of assay buffer. These preparations are mixed using a vortex mixer and incubated for 0, 5, 10 or 20 minutes at 25° C. Then 100 μl of androstenedione (-6.8 μM) containing 1β-^3 H androstenedione is added in assay buffer to provide an assay concentration of substrate (0.55 μM) which is at least ten times the Km of androstenedione (0.04 μM). Following vortexing, the enzyme incubation is continued for 10 minutes before being terminated by the addition of chloroform. The amount of radioactivity in the aqueous fraction is determined by scintillation procedures. The enzymatic activity for each concentration of inhibitor at each time period of preincubation is calculated as a percent of the "0" minute vehicle control arbitrarily set at 100%. Therefore, the present enzyme inhibition is expressed as a percentage: (100 percent minus percent enzyme activity with inhibitor present).
Enzyme kinetic analysis utilized Kitz-Wilson plots for time-dependent assays. These analyses provide estimates of apparent Ki of inactivation which represents the inhibitor concentration required to produce half-maximal rate of enzyme inactivation. The pseudo first-order rate constant for enzyme inactivation (kcat) and the half-time of inactivation (.tau.50) of infinite inhibitor concentrations were determined. […]

## C[C@]12CC[C@H]3[C@@H](CCC4=CC(=O)[C@H]5CCC[C@]43C5)[C@@H]1CCC2=O [2β,19-(ethylene)androst-4-ene-3,17-dione]
Kitz-Wilson analysis, read-out: kcat /Ki (inactivation) ratio, index of efficiency of enzyme inactivation
  kinact/KI: 558000 M⁻¹ s⁻¹
Kitz-Wilson plot, microsomal aromatase preparation, 25° C.
  half-time of inactivation (.tau.50) at infinite inhibitor concentration: 0.87 min
Kitz-Wilson plot, microsomal aromatase preparation, preincubation 0-20 min at 25° C., androstenedione 0.55 μM, read-out: apparent Ki of inactivation
  KI (inactivation): 23.9 nM

Source: patent US5166201A, “2β,19-ethylene bridged steroids as aromatase inhibitors” (Merrell Dow Pharmaceuticals Inc., priority 1990, dated 1992)
